Results: patent publication US9657351B2, “MRNA-based gene expression for personalizing patient cancer therapy with an MDM2 antagonist” (Hoffmann-La Roche Inc., priority 2013, dated 2017)
pIC50: −log10 of the molar value.

Columns and labels:
Experiment in all cases: COMPOUND A In Vitro Assay
Assay type in all cases: cell-based
SK-N-SH = conditions: Homo sapiens
Text: (§1) To generate an MDM2 antagonist therapy predictive signature, the response of MDM2 antagonist therapy in vitro with gene expression profiling (FIG. 1) is combined. A bank of 287 human cancer cell lines, collectively termed the Cell Lines for Oncology/Chugai ACcumulative Tumour EncycLopedia (CELLO/CACTEL), representing a broad array of diverse human cancer tumor types are subject to evaluation using several high-throughput genomic technology platforms. The mutational status of nucleic acids from each cell line is determined by exome sequencing. Messenger RNA (mRNA) expression levels at baseline, prior to MDM2 antagonist therapy, are obtained via RNA sequencing. MDM2 antagonist therapy COMPOUND A, sometimes referred to herein as RG7112, responses are obtained by assays known to those skilled in the art such as RNA sequencing and microarray measurement using Gene Chip Human Genome U133 Plus 2.0 Array. The MDM2 therapy responses are obtained by high throughout screening assays. Depending on their responses to COMPOUND A these cell lines are classified as either sensitive, defined as IC50<=1, or resistant, defined as IC50>=10.
(§2) 281 cells are treated with MDM2 antagonists and the IC50 (therapy response) is generated. The cell lines span a broad range of tumor cell types of derivation.

MDA-MB-453 = conditions: Homo sapiens, Breast, mammary gland, TP53 Mutant
Text: as §1, §2

KMS-20 = conditions: Homo sapiens, Lymphocyte, TP53 Mutant
Text: as §1, §2

SK-MEL-1 = conditions: Homo sapiens
Text: as §1, §2

PC-10 = conditions: Homo sapiens, PC10, Lung, TP53 Mutant
Text: as §1, §2

WERI-Rb-1 = conditions: Homo sapiens
Text: as §1, §2

HUP-T4 = conditions: Homo sapiens, Pancreas, TP53 Mutant
Text: as §1, §2

647-V = conditions: Homo sapiens, Urinary tract, urothelium, TP53 Mutant
Text: as §1, §2

SUM-44PE = conditions: Homo sapiens, Breast, TP53 Wild type
Text: as §1, §2

MCF10DCIS•com = conditions: Homo sapiens, Breast, TP53 Wild type
Text: as §1, §2

NCI-H838 = conditions: Homo sapiens, Lung, TP53 Mutant
Text: as §1, §2

HARA = conditions: Homo sapiens, Lung, TP53 Mutant
Text: as §1, §2

KMS-28BM = conditions: Homo sapiens, Lymphocyte, TP53 Mutant
Text: as §1, §2

CCRF-CEM = conditions: Homo sapiens, Lymphocyte T, peripheral blood, TP53 Mutant
Text: as §1, §2

MKN-28 = conditions: Homo sapiens, Stomach, TP53 Mutant
Text: as §1, §2

MDA-MB-134-VI = conditions: Homo sapiens, Breast, mammary gland, TP53 Mutant
Text: as §1, §2

HepG2 = conditions: Homo sapiens
Text: as §1, §2

SUM52PE = conditions: Homo sapiens, Breast, TP53 Wild type
Text: as §1, §2

NCI-H1650 = conditions: Homo sapiens, Lung, TP53 Mutant
Text: as §1, §2

CEM/C2 = conditions: Homo sapiens, Lymphocyte T, peripheral blood, TP53 Mutant
Text: as §1, §2

NCI-H2029 = conditions: Homo sapiens, Lung, TP53 Mutant
Text: as §1, §2

NCI-H2081 = conditions: Homo sapiens, Lung, TP53 Wild type
Text: as §1, §2

NCI-H748 = conditions: Homo sapiens, Lung, TP53 Mutant
Text: as §1, §2

NCI-H1395 = conditions: Homo sapiens, Lung, TP53 Wild type
Text: as §1, §2

NCI-H345 = conditions: Homo sapiens, Lung, TP53 Mutant
Text: as §1, §2

HeLa S3 = conditions: Homo sapiens, Cervix, TP53 Mutant
Text: as §1, §2

BT-483 = conditions: Homo sapiens, Breast, mammary gland, TP53 Mutant
Text: as §1, §2

SW579 = conditions: Homo sapiens, Thyroid gland, TP53 Mutant
Text: as §1, §2

SCC-25 = conditions: Homo sapiens, Tongue, TP53 Mutant
Text: as §1, §2

SCC-15 = conditions: Homo sapiens, Tongue, TP53 Mutant
Text: as §1, §2

HCC1395 = conditions: Homo sapiens, Breast, mammary gland, TP53 Mutant
Text: as §1, §2

NKM-1 = conditions: Homo sapiens
Text: as §1, §2

TCCSUP = conditions: Homo sapiens, TCC-SUP, Urinary, bladder, TP53 Mutant
Text: as §1, §2

SK-OV-3 = conditions: Homo sapiens, Ovary, TP53 Mutant
Text: as §1, §2

KARPAS-299 = conditions: Homo sapiens, Blood, TP53 Mutant
Text: as §1, §2

EGI-1 = conditions: Homo sapiens, Bile duct, TP53 Mutant
Text: as §1, §2

Hs 578T = conditions: Homo sapiens, Breast, mammary gland, TP53 Mutant
Text: as §1, §2

Structure (SMILES): CCOc1cc(C(C)(C)C)ccc1C1=N[C@@](C)(c2ccc(Cl)cc2)[C@@](C)(c2ccc(Cl)cc2)N1C(=O)N1CCN(CCCS(C)(=O)=O)CC1 [COMPOUND A]
- pIC50 (SK-N-SH; Brain, TP53 Wild type): 6.68
- pIC50 (SK-N-SH; SK-N-SH cells): 6.70
- pIC50 (MDA-MB-453): 4.70
- pIC50 (KMS-20): 4.89
- pIC50 (SK-MEL-1; SK-MEL-1, SK-MEL-1, Skin, TP53 Wild type): 6.12
- pIC50 (SK-MEL-1; SK-MEL-1, SK-MEL-1 cells): 6.10
- pIC50 (PC-10): 4.85
- pIC50 (WERI-Rb-1; WERI-Rb-1, Eye, retina, TP53 Wild type): 6.17
- pIC50 (WERI-Rb-1; WERI-Rb-1 cells): 6.15
- pIC50 (HUP-T4): 4.77
- pIC50 (647-V): 4.77
- pIC50 (SUM-44PE): 5.52
- pIC50 (MCF10DCIS•com): 5.85
- pIC50 (NCI-H838): 4.85
- pIC50 (HARA): 4.72
- pIC50 (KMS-28BM): 5.05
- pIC50 (CCRF-CEM): 5.01
- pIC50 (MKN-28): 5.09
- pIC50 (MDA-MB-134-VI): 4.42
- pIC50 (HepG2; HepG2, HepG2, Liver, TP53 Wild type): 6.74
- pIC50 (HepG2; HepG2, HepG2 cells): 6.70
- pIC50 (SUM52PE): 5.06
- pIC50 (NCI-H1650): 5.00
- pIC50 (CEM/C2): 5.03
- pIC50 (NCI-H2029): 5.24
- pIC50 (NCI-H2081): 4.77
- pIC50 (NCI-H748): 4.80
- pIC50 (NCI-H1395): 5.89
- pIC50 (NCI-H345): 4.77
- pIC50 (HeLa S3): 4.70
- pIC50 (BT-483): 4.70
- pIC50 (SW579): 4.80
- pIC50 (SCC-25): 5.03
- pIC50 (SCC-15): 4.70
- pIC50 (HCC1395): 4.70
- pIC50 (NKM-1; NKM-1, Lymphocyte, TP53 Wild type): 6.49
- pIC50 (NKM-1; NKM-1 cells): 6.52
- pIC50 (TCCSUP): 4.80
- pIC50 (SK-OV-3): 4.77
- pIC50 (KARPAS-299): 4.72
- pIC50 (EGI-1): 5.05
- pIC50 (Hs 578T): 5.06
